Values of other authors, collected in patent US7700778B2, “Acylated piperidine derivatives as melanocortin-4 receptor agonists” (Merck Sharp & Dohme Corp., priority 2001, dated 2010).

How the values were obtained:
[1] = in vivo, po
[2] = system: males with psychogenic erectile dysfunction

Compound	duration of effect (men; after an oral dose) [h]	onset of action (men; after an oral dose) [min]	share of men/patients in whom effective (adequate response) (men; oral)	absorption into the systemic circulation [1]	duration of action ([2]; in vivo)	time to onset of erection ([2]; in vivo) [min]	response rate ([2]; injected intramuscularly or subcutaneously) [%]
Cc1ccc(N(CC2=NCCN2)c2cccc(O)c2)cc1 [phentolamine]	2	5 to 30	35-40%	–	–	–	–
Ac-Nle-c[Asp-His-DPhe-Arg-Trp-Lys]-NH2 [MT-II]	–	–	–	not absorbed into the systemic circulation	approximately 2.5 hours	10 to 20	75
